Test results: ChEMBL document CHEMBL1150155, “Purealidin S and purpuramine J, bromotyrosine alkaloids from the Fijian marine sponge Druinella sp” (2002)
Values after ≈ are worked out from the molar mass of the structure shown.

Tests used:
A2780 = test: Cytotoxicity against human A2780 cells; type: functional; details: read-out: ID50 (the source's name)
K562 = test: Cytotoxicity against human K562 cells; type: functional; details: read-out: ID50 (the source's name)

Row | SMILES | IC50 (A2780) [mg/L] | IC50 (K562) [mg/L]
1 | COC1=C(Br)[C@@H](O)[C@]2(C=C1Br)CC(C(=O)NCCc1cnc[nH]1)=NO2 [AEROPHOBIN 1] | 21.5 (≈ 45.2 µM) | 24.1 (≈ 50.6 µM)
2 | COc1ccc(C/C(=N/O)C(=O)NCCc2cc(Br)c(OCCCN(C)C)c(Br)c2)cc1Br [APLYSAMINE 2] | 2.83 (≈ 4.35 µM) | 1.37 (≈ 2.11 µM)
3 | CNCCCOc1c(Br)cc(CCNC(=O)C2=NO[C@]3(C=C(Br)C(OC)=C(Br)[C@@H]3O)C2)cc1Br | 7.44 (≈ 10.2 µM) | 6.02 (≈ 8.23 µM)
4 | COC1=C(Br)[C@H](O)[C@@]2(C=C1Br)CC(C(=O)NCCCc1cnc(N)[nH]1)=NO2 [AEROPHOBIN 2] | > 10 | 6.91 (≈ 13.7 µM)
5 | CNCCCOc1c(Br)cc(CCNC(=O)/C(Cc2ccc(OC)c(Br)c2)=N/O)cc1Br [PURPUREAMINE I] | 1.7 (≈ 2.67 µM) | 1.24 (≈ 1.95 µM)
6 | COC1=C(Br)[C@H](O)[C@@]2(C=C1Br)CC(C(=O)NCCCOc1c(Br)cc(CCNC(=O)CCCCCCCCCCCC(C)C)cc1Br)=NO2 [ARAPLYSILLIN 2] | 14.8 (≈ 15.7 µM) | 42.7 (≈ 45.4 µM)
7 | COC1=C(Br)[C@@H](O)[C@]2(C=C1Br)CC(C(=O)NCCc1cnc(N)[nH]1)=NO2 [PUREALIDIN J] | > 10 | > 10
8 | COC1=C(Br)[C@@H](O)[C@]2(C=C1Br)CC(C(=O)NCCCOc1c(Br)cc(CCN)cc1Br)=NO2 [ARAPLYSILLIN 1] | 18.6 (≈ 25.9 µM) | 27.9 (≈ 39 µM)
9 | COc1ccc(C/C(=N\O)C(=O)NCCc2cc(Br)c(OCCC[N+](C)(C)[O-])c(Br)c2)cc1Br [PURPUREAMINE J] | 6.77 (≈ 10.2 µM) | 5.97 (≈ 8.96 µM)
